# pEC50: −log10 of the molar value.
# Tests used:
# HL-60 cells = test: HL-60 cell differentiation (nitro blue tetrazolium reduction); assay type: cell-based, Human; conditions: for pEC50: HL-60 differentiation into monocytes, FIG. 2
# Protocol: The study drugs were dissolved in ethanol and the concentrations determined using UV spectrophotometry. Serial dilutions were prepared so that a range of drug concentrations could be tested without changing the final concentration of ethanol (≦0.2%) present in the cell cultures.
# Human promyelocytic leukemia (HL60) cells were grown in RPMI-1640 medium containing 10% fetal bovine serum. The cells were incubated at 37° C. in the presence of 5% CO2.
# HL60 cells were plated at 1.2×10^5 cells/ml. Eighteen hours after plating, cells in duplicate were treated with drug. Four days later, the cells were harvested and a nitro blue tetrazolium reduction assay was performed (Collins et al., 1979; J. Exp. Med. 149:969-974). The percentage of differentiated cells was determined by counting a total of 200 cells and recording the number that contained intracellular black-blue formazan deposits. Verification of differentiation to monocytic cells was determined by measuring phagocytic activity (data not shown).
# [1] = test system: 24-hydroxylase (24Ohase) gene promoter; test: In vitro transcription assay, luciferase reporter in ROS 17/2.8 (bone) cells; assay type: cell-based; conditions: ROS 17/2.8 cells, 24Ohase promoter-luciferase; FIG. 3; read-out: EC50, transcriptional activity in bone cells (24-hydroxylase gene)
# Protocol: Transcription activity was measured in ROS 17/2.8 (bone) cells that were stably transfected with a 24-hydroxylase (24Ohase) gene promoter upstream of a luciferase reporter gene (Arbour et al., 1998). Cells were given a range of doses. Sixteen hours after dosing the cells were harvested and luciferase activities were measured using a luminometer.
# RLU=relative luciferase units.
# [2] = Bone calcium mobilization (serum calcium) in vitamin D-deficient rats; assay type: in vivo, Sprague-Dawley rats; conditions: ip
# Protocol: (§1) Male, weanling Sprague-Dawley rats were placed on Diet 11 (0.47% Ca) diet+AEK oil for one week followed by Diet 11 (0.02% Ca)+AEK oil for 3 weeks. The rats were then switched to a diet containing 0.47% Ca for one week followed by two weeks on a diet containing 0.02% Ca. Dose administration began during the last week on 0.02% calcium diet. Four consecutive ip doses were given approximately 24 hours apart. Twenty-four hours after the last dose, blood was collected from the severed neck and the concentration of serum calcium determined as a measure of bone calcium mobilization. The first 10 cm of the intestine was also collected for intestinal calcium transport analysis using the everted gut sac method.
# [3] = Intestinal calcium transport, everted gut sac method, vitamin D-deficient rats; assay type: in vivo, Sprague-Dawley rats; conditions: ip, FIGS. 5A and 5B
# Protocol: as §1
pEC50 (HL-60 cells; Homo sapiens),SMILES,pEC50 (HL-60 cells),pEC50 [1],"serum calcium levels (bone calcium mobilization) ([2]; all dosages, rats on 0.02% Ca diet, FIGS. 4A and 4B)",intestinal calcium transport ([3]; 260 pmol/day),"potency on HL-60 cell differentiation relative to 1,25(OH)2D3 (times more potent) (HL-60 cells; versus 1,25(OH)2D3)","bone calcium mobilization (serum calcium) ([2]; 260 pmol/day for 4 consecutive days, rats on 0.02% Ca diet)","bone calcium mobilization (serum calcium) ([2]; 7020 pmol/day, rats on 0.02% Ca diet)","potency in mobilizing bone calcium relative to the native hormone (times less potent) ([2]; versus 1,25(OH)2D3, rats)",intestinal calcium transport ([3]; 7020 pmol/day)
–,"C=C1/C(=C\C=C2/CCC[C@]3(C)[C@@H]([C@H](C)CCCC(C)(C)O)CC[C@@H]23)C[C@@H](O)C[C@@H]1O [1,25(OH)2D3, 1α,25-dihydroxyvitamin D3, reference compound]",8.70,9.70,increased serum calcium levels at all dosages,promotes a significant increase,–,–,–,–,–
10.00,"C=C1[C@H](O)CC(=C/C=C2\CCC[C@@]3(C)C2CC[C@@H]3[C@@H](C)CCC[C@@H](C)O)C[C@H]1O (stereo partly drawn) [SR1, 2-methylene-(20S,25R)-19,26-dinor-1α,25-dihydroxyvitamin D3]",–,11.00,–,promotes intestinal calcium transport only slightly,about 10 times,did not result in mobilization of bone calcium,without any substantial effect,approximately 30 times,significant intestinal calcium transport activity was recorded

# From patent US8609643B2, “2-methylene-(20S,25R)-19,26-dinor-vitamin D analogs” (Wisconsin Alumni Research Foundation, priority 2007, dated 2013)
